The target in the assay is T1, SHP2 protein (Homo sapiens, UniProt Q06124).
T1 sequence (Q06124 1-593): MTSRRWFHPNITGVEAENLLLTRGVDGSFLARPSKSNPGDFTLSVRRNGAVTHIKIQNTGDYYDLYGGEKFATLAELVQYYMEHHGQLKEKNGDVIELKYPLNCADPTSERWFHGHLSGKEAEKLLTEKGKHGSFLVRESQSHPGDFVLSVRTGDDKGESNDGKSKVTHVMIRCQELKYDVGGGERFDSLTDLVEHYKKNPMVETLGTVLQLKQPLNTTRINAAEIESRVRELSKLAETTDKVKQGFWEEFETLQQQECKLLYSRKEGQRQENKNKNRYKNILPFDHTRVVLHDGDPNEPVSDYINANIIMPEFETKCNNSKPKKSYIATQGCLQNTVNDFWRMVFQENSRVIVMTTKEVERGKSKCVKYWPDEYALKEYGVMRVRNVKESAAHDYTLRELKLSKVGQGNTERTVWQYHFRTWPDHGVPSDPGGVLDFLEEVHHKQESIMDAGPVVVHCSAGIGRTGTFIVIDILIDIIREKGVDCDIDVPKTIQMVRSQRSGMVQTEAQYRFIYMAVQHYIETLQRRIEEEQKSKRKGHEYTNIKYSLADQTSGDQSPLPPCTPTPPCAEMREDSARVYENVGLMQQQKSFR
Description: Measurement of SHP2 protein degradation in NCI-H358 cells (western blotting). It is filed as cell-based. Conditions: harvested after 24 hours. Details: endogenous in cells; host or cells: NCI-H358. As to the method: H358 cells were treated with the synthesized Example compounds, and the amount of SHP2 protein present in the cells was measured using western blotting detection. The protocol for the experiment using H358 cells is as follows.
[Culture]H358 cells were resuspended in RPMI1640 with 25 mM HEPES (Hyclone, SH30255.01), 10% FBS (Hyclone, SV30207.02), 1% Penicillin-streptomycin (Welgene, LS 202-02) media, seeded at 3×10^5/mL in 12-well plates (1 mL each), and cultured for 24 hours.
[Compound treatment] Before compound treatment, the media was changed to 1 mL media, and then the 12-well plate was treated as follows. The 10 mM stock dissolved in DMSO was serially diluted 1/100 or 1/10 with the media, and the compound was treated to the cells at a final concentration of 0.001, 0.01, and 0.1 μM, and harvested after 24 hours. For the negative control group, DMSO diluted 1/1000 in the media was added (1 μL DMSO+999 μL media).
[Harvest]24 hours after compound treatment, each well was scraped with a cell lifter (SPL, 90040), pipetted with a 1 mL pipette, collected in a 1.5 mL microtube, and centrifuged (500 g, 5 min, 4° C.). The supernatant was removed, washed with PBS, and centrifuged again (500 g, 5 min, 4° C.). Afterwards, the supernatant was removed to prepare a pellet.
[Cell lysis and sample preparation] Lysis buffer was prepared as follows. RIPA buffer (Biosesang, RC2038-050-00)+0.5 mM PMSF (SIGMA, P7626)+1× Protease/Phosphatase Inhibitor (Cell signaling, 5872S) were added at 30 μL per tube, vortexed, and incubated on ice for 30 minutes. Afterwards, sonication was performed (10 sec pulse, 30 sec rest, 5 cycles, 70% amplification) and centrifugation was performed (15,000 g, 15 min, 4° C.), and only the supernatant was transferred to a microtube. A 96-well plate was diluted to 1/4 with 7.5 μL of RIPA buffer and 2.5 μL of sample, and 200 μL each was added after mixing A and B of the BCA Protein Assay Kit (iNtRON, 21071) in a ratio of 50:1. The plate was incubated at 37° C. for 30 minutes and left at room temperature for 10 minutes. After shaking for 10 seconds with a SYNERGY H1 microplate reader from BioTek, the absorbance was measured at 562 nm. The protein was quantified using the measured value to make a sample, which was then incubated at 70° C. for 10 minutes. The sample buffer used here was a mixture of NuPAGE or Bolt 4× sample buffer (Invitrogen) and each 10× sample reducing agent depending on the gel to be used, and RIPA buffer was used for protein dilution.
[Western blotting detection] Equal amounts of samples were loaded onto NuPAGE or Bolt Bis-tris 4-12% gradient gel and run (200 V, 35 min). This was transferred to […] NC membrane using Trans-blot Turbo (BIO-RAD) (1.3 A constant, 25 V limit, 15 min), and blocked with 5% skim milk/0.2% TBST for 45 min at room temperature. Anti-SHPTP2 Mouse (1:1,000 in 5% skim milk/0.2% TBST, size: 70 kDa, Santa cruz sc-7384) and Anti-GAPDH Rabbit (1:2,000 in 5% skim milk or 5% BSA/0.2% TBST, size: 37 kDa, CST #2118) were added and incubated overnight at 4° C. After washing three times with 0.2% TBST washing buffer for 5 minutes each, secondary antibodies Anti-Mouse IgG (1:5,000 in 5% skim milk/0.2% TBST, CST) and IRDye® 680RD Goat anti-Rabbit IgG Secondary Antibody (1:10,000 in 5% skim milk/0.2% TBST, LI-COR 926-68071) were added, and incubated on a rocker at room temperature for 45 minutes. The resultants were washed five times with 0.2% TBST washing buffer for 5 minutes each, and detected using LI-COR's Odyssey. GAPDH was detected with a 700 nm channel, and SHPTP2 was detected using SuperSignal West Pico PLUS Chemiluminescent Substrate.
A general note: A western blot detects proteins with antibodies after separation by electrophoresis.

Eight molecules from patent publication US20260144788A1, “COMPOUND FOR SHP2 PROTEIN DEGRADATION AND MEDICAL USES THEREOF” (UBIX THERAPEUTICS, INC., priority 2022, published 2026) can be followed below.

For `CC(=O)N[C@H](C(=O)N1C[C@H](O)C[C@H]1C(=O)NCc1ccc(-c2scnc2C)cc1O[C@H]1CC[C@H](C(=O)N2CC(N3CCOc4c(Sc5cnc(N6CCC(C)(CN)CC6)cn5)cccc43)C2)CC1)C(C)(C)C` [Example 34, (2S,4R)-1-((S)-2-acetamido-3,3-dimethylbutanoyl)-N-(2-(((1R,4S)-4-(3-(8-((5-(4-(aminomethyl)-4-methylpiperidin-1-yl)pyrazin-2-yl)thio)-2,3-dihydro-4H-benzo[b][1,4]oxazin-4-yl)azetidine-1-carbonyl)cyclohexyl)oxy)-4-(4-methylthiazol-5-yl)benzyl)-4-hydroxypyrrolidine-2-carboxamide], the SHP2% degradation is, setting by setting: (0.01 μM) −36.9%; (0.1 μM) 73.0%.
The corresponding values for `CC(=O)N[C@H](C(=O)N1C[C@H](O)C[C@H]1C(=O)NCc1ccc(-c2scnc2C)cc1O[C@H]1CC[C@H](C(=O)N2CCC(N3CCOc4c(Sc5cnc(N6CCC(C)(CN)CC6)cn5)cccc43)CC2)CC1)C(C)(C)C` [Example 35, (2S,4R)-1-((S)-2-acetamido-3,3-dimethylbutanoyl)-N-(2-(((1r,4S)-4-(4-(8-((5-(4-(aminomethyl)-4-methylpiperidin-1-yl)pyrazin-2-yl)thio)-2,3-dihydro-4H-benzo[b][1,4]oxazin-4-yl)piperidine-1-carbonyl)cyclohexyl)oxy)-4-(4-methylthiazol-5-yl)benzyl)-4-hydroxypyrrolidine-2-carboxamide] are 66.8% and 97.7%.
The corresponding values for `CC(=O)N[C@H](C(=O)N1C[C@H](O)C[C@H]1C(=O)NCc1ccc(-c2scnc2C)cc1O[C@H]1CC[C@H](C(=O)N2CCC(N3CCOc4c(Sc5cnc(N6CCC7(CC6)CO[C@@H](C)[C@H]7N)cn5)cccc43)CC2)CC1)C(C)(C)C` [Example 36, (2S,4R)-1-((S)-2-acetamido-3,3-dimethylbutanoyl)-N-(2-(((1R,4S)-4-(4-(8-((5-((3S,4S)-4-amino-3-methyl-2-oxa-8-azaspiro[4.5]decan-8-yl)pyrazin-2-yl)thio)-2H-benzo[b][1,4]oxazin-4(3H)-yl)piperidine-1-carbonyl)cyclohexyl)oxy)-4-(4-methylthiazol-5-yl)benzyl)-4-hydroxypyrrolidine-2-carboxamide] are 91.0% and 100.0%.
On the same counts, the results for `CC(=O)N[C@H](C(=O)N1C[C@H](O)C[C@H]1C(=O)NCc1ccc(-c2scnc2C)cc1O[C@H]1CC[C@H](C(=O)N2CCC(n3cc(F)c4c(Sc5cnc(N6CCC(C)(CN)CC6)cn5)cccc43)CC2)CC1)C(C)(C)C` [Example 37, (2S,4R)-1-((S)-2-acetamido-3,3-dimethylbutanoyl)-N-(2-(((1r,4S)-4-(4-(4-((5-(4-(aminomethyl)-4-methylpiperidin-1-yl)pyrazin-2-yl)thio)-3-fluoro-1H-indol-1-yl)piperidine-1-carbonyl)cyclohexyl)oxy)-4-(4-methylthiazol-5-yl)benzyl)-4-hydroxypyrrolidine-2-carboxamide] are 75.8% and 99. %.
Take `CC(=O)N[C@H](C(=O)N1C[C@H](O)C[C@H]1C(=O)NCc1ccc(-c2scnc2C)cc1O[C@H]1CC[C@H](C(=O)N2CC(Nc3nccc(Sc4cnc(N5CCC(C)(N)CC5)cn4)c3Cl)C2)CC1)C(C)(C)C` [Example 39, (2S,4R)-1-((S)-2-acetamido-3,3-dimethylbutanoyl)-N-(2-(((1R,4S)-4-(3-((4-((5-(4-amino-4-methylpiperidin-1-yl)pyrazin-2-yl)thio)-3-chloropyridin-2-yl)amino)azetidine-1-carbonyl)cyclohexyl)oxy)-4-(4-methylthiazol-5-yl)benzyl)-4-hydroxypyrrolidine-2-carboxamide]: the SHP2% degradation runs as follows: (0.01 μM) 83.6%; (0.1 μM) 98.1%.
The corresponding values for `CC(=O)N[C@H](C(=O)N1C[C@H](O)C[C@H]1C(=O)NCc1ccc(-c2scnc2C)cc1O[C@H]1CC[C@H](C(=O)N2CC(Nc3nccc(Sc4cnc(N5CCC6(CC5)CO[C@@H](C)[C@H]6N)cn4)c3Cl)C2)CC1)C(C)(C)C` [Example 40, (2S,4R)-1-((S)-2-acetamido-3,3-dimethylbutanoyl)-N-(2-(((1R,4S)-4-(3-((4-((5-((3S,4S)-4-amino-3-methyl-2-oxa-8-azaspiro[4.5]decan-8-yl)pyrazin-2-yl)thio)-3-chloropyridin-2-yl)amino)azetidine-1-carbonyl)cyclohexyl)oxy)-4-(4-methylthiazol-5-yl)benzyl)-4-hydroxypyrrolidine-2-carboxamide] are 94.2% and 95.9%.
The corresponding values for `CC(=O)N[C@H](C(=O)N1C[C@H](O)C[C@H]1C(=O)NCc1ccc(-c2scnc2C)cc1O[C@H]1CC[C@H](C(=O)N2CCC(Nc3nccc(Sc4cnc(N5CCC(C)(N)CC5)cn4)c3Cl)CC2)CC1)C(C)(C)C` [Example 42, (2S,4R)-1-((S)-2-acetamido-3,3-dimethylbutanoyl)-N-(2-(((1R,4S)-4-(4-((4-((5-(4-amino-4-methylpiperidin-1-yl)pyrazin-2-yl)thio)-3-chloropyridin-2-yl)amino)piperidine-1-carbonyl)cyclohexyl)oxy)-4-(4-methylthiazol-5-yl)benzyl)-4-hydroxypyrrolidine-2-carboxamide] are 95.2% and 98.7%.
The corresponding values for `CC(=O)N[C@H](C(=O)N1C[C@H](O)C[C@H]1C(=O)NCc1ccc(-c2scnc2C)cc1O[C@H]1CC[C@H](C(=O)N2CCC(Nc3nccc(Sc4cnc(N5CCC6(CC5)CO[C@@H](C)[C@H]6N)cn4)c3Cl)CC2)CC1)C(C)(C)C` [Example 43, (2S,4R)-1-((S)-2-acetamido-3,3-dimethylbutanoyl)-N-(2-(((1R,4S)-4-(4-((4-((5-((3S,4S)-4-amino-3-methyl-2-oxa-8-azaspiro[4.5]decan-8-yl)pyrazin-2-yl)thio)-3-chloropyridin-2-yl)amino)piperidine-1-carbonyl)cyclohexyl)oxy)-4-(4-methylthiazol-5-yl)benzyl)-4-hydroxypyrrolidine-2-carboxamide] are 94.3% and 95.9%.
